Measurements published in article PMC6152416, “Pharmacological and Toxicological Screening of Novel Benzimidazole-Morpholine Derivatives as Dual-Acting Inhibitors” (Molecules : A Journal of Synthetic Chemistry and Natural …, 2017).
Like-named read-outs stand apart in the source and are kept apart here.

Legend:
Assay type in all cases: biochemical
[1] = target: T1, COX-2 (Homo sapiens, UniProt P35354); assay: Fluorimetric COX-2 inhibition screening kit (BioVision)
T1 construct: purchased BioVision (Milpitas, CA, USA) K547-100
T1 sequence (P35354 18-604): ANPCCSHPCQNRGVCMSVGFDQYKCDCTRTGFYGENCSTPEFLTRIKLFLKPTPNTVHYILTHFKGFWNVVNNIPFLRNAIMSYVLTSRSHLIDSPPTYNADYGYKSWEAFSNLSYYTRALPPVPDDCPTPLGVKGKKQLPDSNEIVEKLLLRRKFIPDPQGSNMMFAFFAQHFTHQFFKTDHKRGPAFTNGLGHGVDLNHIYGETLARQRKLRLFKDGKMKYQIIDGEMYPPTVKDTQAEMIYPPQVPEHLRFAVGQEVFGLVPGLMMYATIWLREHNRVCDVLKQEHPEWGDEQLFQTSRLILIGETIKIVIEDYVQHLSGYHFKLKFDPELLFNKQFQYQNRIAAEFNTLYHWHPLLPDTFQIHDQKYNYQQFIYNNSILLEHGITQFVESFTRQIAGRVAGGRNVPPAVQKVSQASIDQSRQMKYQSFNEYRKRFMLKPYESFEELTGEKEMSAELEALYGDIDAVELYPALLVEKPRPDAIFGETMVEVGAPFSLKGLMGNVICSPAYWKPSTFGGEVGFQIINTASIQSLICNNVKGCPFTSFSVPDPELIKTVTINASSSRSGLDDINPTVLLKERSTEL
Protocol: (§1) Inhibitory potency of the compounds on COX-1 and COX-2 enzymes was determined by using fluorimetric COX-1 and COX-2 inhibition screening kits from BioVision (Milpitas, CA, USA). The experimental protocol as described in the guides provided by the supplier was followed. All of the pipetting were performed using a robotized system to increase speed, accuracy and precision. Fluorescence intensities of the samples were kinetically measured at 25 °C for 5–10 min by monitoring emissions at 587 nm after excitation at 535 nm. Two appropriate points (T1 and T2) in the linear range of the plot were chosen and the corresponding fluorescence values (RFU1 and RFU2) were obtained. The slope for all samples including Enzyme Control (EC) was calculated by dividing the net ΔRFU (RFU2 − RFU1) values by the time ΔT (T2 − T1). Percentage of relative inhibition was calculated by using the following equation:% Relative inhibition = (Slope of EC − Slope of S/Slope of EC) × 100 where S is the term representing the tested compound [51, 52]. […] The IC50 values were calculated using the plots of the enzyme activity against concentrations by applying regression analyses.

[2] = target: T2, COX-1 (Ovis aries, UniProt P05979); assay: Fluorimetric COX-1 inhibition screening kit (BioVision)
T2 construct: purchased BioVision (Milpitas, CA, USA) K548-100
T2 sequence (P05979 25-600): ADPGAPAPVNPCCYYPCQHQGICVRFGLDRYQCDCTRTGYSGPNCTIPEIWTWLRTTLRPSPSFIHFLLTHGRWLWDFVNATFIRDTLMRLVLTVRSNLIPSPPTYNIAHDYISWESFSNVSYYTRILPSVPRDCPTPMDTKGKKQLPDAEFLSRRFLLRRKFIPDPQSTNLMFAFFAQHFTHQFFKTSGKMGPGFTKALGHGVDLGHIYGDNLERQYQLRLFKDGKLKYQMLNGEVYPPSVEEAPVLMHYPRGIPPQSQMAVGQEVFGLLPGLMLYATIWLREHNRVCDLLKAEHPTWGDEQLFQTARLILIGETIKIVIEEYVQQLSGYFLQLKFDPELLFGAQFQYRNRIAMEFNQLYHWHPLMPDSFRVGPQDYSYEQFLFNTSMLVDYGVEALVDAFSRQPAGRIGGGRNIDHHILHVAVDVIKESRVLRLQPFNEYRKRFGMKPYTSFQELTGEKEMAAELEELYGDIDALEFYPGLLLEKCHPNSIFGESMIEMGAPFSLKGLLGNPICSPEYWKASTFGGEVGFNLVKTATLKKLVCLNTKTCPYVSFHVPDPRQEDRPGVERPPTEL
Protocol: as §1

[3] = target: AChE (Homo sapiens, UniProt P22303)
Chain of AChE (P22303 32-614): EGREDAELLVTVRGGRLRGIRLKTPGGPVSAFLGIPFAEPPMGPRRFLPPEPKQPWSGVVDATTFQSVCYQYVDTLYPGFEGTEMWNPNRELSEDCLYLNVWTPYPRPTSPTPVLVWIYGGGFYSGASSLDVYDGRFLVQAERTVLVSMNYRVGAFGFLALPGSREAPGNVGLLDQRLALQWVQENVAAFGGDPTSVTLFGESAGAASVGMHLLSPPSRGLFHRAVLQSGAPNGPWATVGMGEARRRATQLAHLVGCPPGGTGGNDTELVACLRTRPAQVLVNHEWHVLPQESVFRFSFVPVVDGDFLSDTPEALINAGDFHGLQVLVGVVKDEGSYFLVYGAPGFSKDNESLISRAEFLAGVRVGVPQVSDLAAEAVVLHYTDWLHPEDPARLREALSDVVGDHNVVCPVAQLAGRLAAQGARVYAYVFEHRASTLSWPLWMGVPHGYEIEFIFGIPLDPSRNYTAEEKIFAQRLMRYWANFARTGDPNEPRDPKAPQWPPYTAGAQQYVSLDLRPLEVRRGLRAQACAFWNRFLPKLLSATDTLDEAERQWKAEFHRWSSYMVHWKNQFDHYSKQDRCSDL
Protocol: Inhibition potency of the test compounds against AChE was determined using Ellman’s method. Enzyme solutions were prepared in gelatin solution (1%, w/v), at the concentration of 2.5 units/mL. […] AChE solution (20 µL/well) and test solution (20 µL/well) were added to phosphate buffer solution (140 µL/well, pH 8.0 ± 0.1), and incubated at 25 °C for 5 min. […] The production of the yellow anion was recorded by multimode microplate reader for 10 min at 412 nm. As a control, an identical solution of the enzyme without the inhibitor was processed. The control and the inhibitor readings were corrected with blank-readings. All processes were assayed in four independent determinations.

[4] = target: T3, human recombinant MAO-A (Homo sapiens, UniProt P21397); assay: MAO inhibition assay (kynuramine, fluorimetric)
T3 sequence (P21397 1-527): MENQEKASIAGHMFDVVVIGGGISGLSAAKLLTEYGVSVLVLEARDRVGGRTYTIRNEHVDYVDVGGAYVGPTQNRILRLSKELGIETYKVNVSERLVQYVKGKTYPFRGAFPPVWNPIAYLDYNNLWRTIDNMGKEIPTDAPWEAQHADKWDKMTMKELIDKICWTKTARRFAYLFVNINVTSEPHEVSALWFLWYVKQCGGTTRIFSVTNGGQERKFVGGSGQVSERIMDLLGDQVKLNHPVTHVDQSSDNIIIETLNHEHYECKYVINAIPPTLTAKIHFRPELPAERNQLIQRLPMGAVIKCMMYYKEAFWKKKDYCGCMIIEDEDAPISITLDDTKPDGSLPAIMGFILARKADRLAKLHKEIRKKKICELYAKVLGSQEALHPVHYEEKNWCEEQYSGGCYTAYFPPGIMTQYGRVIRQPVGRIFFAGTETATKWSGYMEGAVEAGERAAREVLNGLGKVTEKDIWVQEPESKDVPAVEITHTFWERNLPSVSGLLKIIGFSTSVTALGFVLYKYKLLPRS
Protocol: (§2) Enzyme activity assays were performed according to the procedure reported by Matsumoto et al. with slight modifications. In order to prevent the destructive effect of light on MAO enzymes, the assays were performed in 96-well black plates. Phosphate buffer solution (0.1 M, pH = 7.4) was used for preparation of stock solutions (5 mg/mL) of both human recombinant MAO-A and MAO-B enzymes. […] The addition of the test compound solution was followed by addition of either MAO-A or MAO-B enzyme (50 μL/well) solutions. After 10 min of incubation at 37 °C, kynuramine (50 μL/well) was added and enzyme-substrate reaction was initiated. The plate was incubated for 20 min at 37 °C and then reaction was terminated by addition of 2 N NaOH (75 μL/well). The fluorimetric reads from the top was performed at 310 nm excitation and 380 nm emission wavelengths.

[5] = target: T4, human recombinant MAO-B (Homo sapiens, UniProt P27338); assay: MAO inhibition assay (kynuramine, fluorimetric)
T4 sequence (P27338 1-520): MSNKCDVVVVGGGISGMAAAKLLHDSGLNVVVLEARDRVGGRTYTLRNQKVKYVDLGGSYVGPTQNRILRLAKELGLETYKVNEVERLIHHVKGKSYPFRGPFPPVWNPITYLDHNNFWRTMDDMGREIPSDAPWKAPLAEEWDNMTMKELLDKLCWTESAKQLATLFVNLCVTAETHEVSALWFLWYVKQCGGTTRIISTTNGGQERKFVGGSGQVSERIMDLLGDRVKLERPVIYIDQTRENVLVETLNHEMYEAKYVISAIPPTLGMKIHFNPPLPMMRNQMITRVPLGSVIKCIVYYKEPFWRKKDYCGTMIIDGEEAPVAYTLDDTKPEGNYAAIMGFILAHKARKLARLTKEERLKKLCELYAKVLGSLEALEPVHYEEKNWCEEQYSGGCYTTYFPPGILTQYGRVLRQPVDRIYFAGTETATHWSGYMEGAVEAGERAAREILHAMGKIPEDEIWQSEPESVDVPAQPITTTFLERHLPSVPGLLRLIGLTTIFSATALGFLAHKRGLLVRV
Protocol: as §2

Compound	COX-2 Inhibition (%) ([1]; 10^-3 M)	COX-2 Inhibition (%) ([1]; 10^-4 M)	COX-1 Inhibition (%) ([2]; 10^-3 M)	COX-1 Inhibition (%) ([2]; 10^-4 M)	AChE Inhibition (%) ([3]; 10^-3 M)	AChE Inhibition (%) ([3]; 10^-4 M)	MAO-A Inhibition (%) ([4]; 10^-3 M)	MAO-A Inhibition (%) ([4]; 10^-4 M)	MAO-B Inhibition (%) ([5]; 10^-3 M)	MAO-B Inhibition (%) ([5]; 10^-4 M)	also measured
CCN(CC)c1ccc(-c2nc3ccccc3n2CCN2CCOCC2)cc1 [Compound 2h, 2-(4-Diethylaminophenyl)-1-[2-(morpholin-4-yl)ethyl]-1H-benzimidazole]	56.20	57.08	75.21	78.21	10.49	10.49	36.71	23.16	45.58	36.16	IC50 [1]: 51.2 µM; COX-2 inhibition at the initial concentrations ([1]; 10^−3 M and 10^−4 M): more than 50%; inhibition at 10 µM ([1]; 10^−5 M): 47.5 ± 1.08%; inhibition at 1 µM ([1]; 10^−6 M, read-out: COX 2 Inhibition %): 42.6 ± 1.16%; inhibition at 0.1 µM ([1]; 10^−7 M): 31.8 ± 0.99%; inhibition at 0.01 µM ([1]; 10^−8 M): 28.4 ± 0.82%; inhibition at 0.001 µM ([1]; 10^−9 M): 23 ± 0.68%; IC50 [2]: 43 µM; COX-1 inhibition at the initial concentrations ([2]; 10^−3 M and 10^−4 M): more than 50%; inhibition at 10 µM ([2]; 10^−5 M): 46.3 ± 1.09%; inhibition at 1 µM ([2]; 10^−6 M): 40.9 ± 0.99%; inhibition at 0.1 µM ([2]; 10^−7 M): 35.6 ± 0.81%; inhibition at 0.01 µM ([2]; 10^−8 M): 30.8 ± 0.93%; inhibition at 0.001 µM ([2]; 10^−9 M): 24.2 ± 0.72%
CSc1ccc(-c2nc3ccccc3n2CCN2CCOCC2)cc1 [Compound 2n, 2-(4-Methylthiophenyl)-1-[2-(morpholin-4-yl)ethyl]-1H-benzimidazole]	30.08	33.46	39.42	32.78	12.21	12.21	32.73	24.05	34.75	32.24	
N#Cc1ccc(-c2nc3ccccc3n2CCN2CCOCC2)cc1 [Compound 2k, 2-(4-Cyanophenyl)-1-[2-(morpholin-4-yl)ethyl]-1H-benzimidazole]	26.39	20.46	28.63	28.13	20.45	20.45	31.99	26.86	43.22	34.29	
Brc1ccc(-c2nc3ccccc3n2CCN2CCOCC2)cc1 [Compound 2g, 2-(4-Bromophenyl)-1-[2-(morpholin-4-yl)ethyl]-1H-benzimidazole]	16.30	19.03	29.47	21.74	13.04	13.04	30.85	22.29	38.63	30.87	
